From patent publication US20070049564A1 (Wyeth, priority 2005, published 2007)
In brackets after ≈: the same amount, converted by molar mass. Read-outs that look alike come from different tables or passages of the source.

Assays:
E. coli GC 3226 = test: MIC, broth microdilution; details: Escherichia coli
S. pneumoniae* GC 4465 = test: MIC, broth microdilution; details: Streptococcus pneumoniae
E. coli GC 2235 = test: MIC, broth microdilution; details: Escherichia coli
E. coli GC 4560 = test: MIC, broth microdilution; details: Escherichia coli
S. aureus GC 6335 = test: MIC, broth microdilution; details: Staphylococcus aureus
E. coli GC 2271 = test: MIC, broth microdilution; details: Escherichia coli
E. faecalis GC 2242 = test: MIC, broth microdilution; details: Enterococcus faecalis
E. faecalis GC 2267 = test: MIC, broth microdilution; details: Enterococcus faecalis
S. aureus GC 2216 = test: MIC, broth microdilution; details: Staphylococcus aureus
E. faecium GC 4556 = test: MIC, broth microdilution; details: Enterococcus faecium
S. typhimurium GC 2172 = test: MIC, broth microdilution; details: Salmonella enterica, TYPHIMURIUM
Staph. aureus Smith = test: In vivo activity (oral, iv; ED50) against Staph. aureus Smith in mice
E. coli GC 2270 = test: MIC, broth microdilution; details: Escherichia coli
S. aureus GC 6467 = test: MIC, broth microdilution; details: Staphylococcus aureus
E. coli GC 4559 = test: MIC, broth microdilution; details: Escherichia coli
P. aeruginosa GC 2214 = test: MIC, broth microdilution; details: Pseudomonas aeruginosa
E. coli GC 2203 = test: MIC, broth microdilution; details: Escherichia coli
E. coli GC 2231 = test: MIC, broth microdilution; details: Escherichia coli
E. coli GC 2232 = test: MIC, broth microdilution; details: Escherichia coli
S. agalactiae GC 4564 = test: MIC, broth microdilution; details: Streptococcus agalactiae
[1] = read-out: MINIMAL INHIBITORY CONCENTRATION MIC, Human Serum
[2] = read-out: MINIMAL INHIBITORY CONCENTRATION MIC, Mouse Serum
[3] = read-out: MINIMAL INHIBITORY CONCENTRATION MIC, Water

MIC (E. coli GC 3226; GC3226, read-out: MINIMAL INHIBITORY CONCENTRATION MIC, Human Serum): 32 µg/mL (≈ 41.5 µM)
MIC (E. coli GC 3226; GC3226, read-out: MINIMAL INHIBITORY CONCENTRATION MIC, Mouse Serum): 0.5 µg/mL (≈ 0.648 µM)
MIC (E. coli GC 3226; GC3226, read-out: MINIMAL INHIBITORY CONCENTRATION MIC, Water): > 64 µg/mL
MIC (S. pneumoniae* GC 4465; [1]): 0.12 µg/mL (≈ 0.155 µM)
MIC (S. pneumoniae* GC 4465; [2]): 0.12 µg/mL (≈ 0.155 µM)
MIC (S. pneumoniae* GC 4465; [3]): 0.12 µg/mL (≈ 0.155 µM)
MIC (E. coli GC 2235; GC2235, read-out: MINIMAL INHIBITORY CONCENTRATION MIC, Human Serum): 16 µg/mL (≈ 20.7 µM)
MIC (E. coli GC 2235; GC2235, read-out: MINIMAL INHIBITORY CONCENTRATION MIC, Mouse Serum): 0.25 µg/mL (≈ 0.324 µM)
MIC (E. coli GC 2235; GC2235, read-out: MINIMAL INHIBITORY CONCENTRATION MIC, Water): 32 µg/mL (≈ 41.5 µM)
MIC (E. coli GC 4560; GC4560, read-out: MINIMAL INHIBITORY CONCENTRATION MIC, Human Serum): 1 µg/mL (≈ 1.3 µM)
MIC (E. coli GC 4560; GC4560, read-out: MINIMAL INHIBITORY CONCENTRATION MIC, Mouse Serum): 0.12 µg/mL (≈ 0.155 µM)
MIC (E. coli GC 4560; GC4560, read-out: MINIMAL INHIBITORY CONCENTRATION MIC, Water): 2 µg/mL (≈ 2.59 µM)
MIC (S. aureus GC 6335; GC6335, read-out: MINIMAL INHIBITORY CONCENTRATION MIC, Human Serum): 2 µg/mL (≈ 2.59 µM)
MIC (S. aureus GC 6335; GC6335, read-out: MINIMAL INHIBITORY CONCENTRATION MIC, Mouse Serum): 2 µg/mL (≈ 2.59 µM)
MIC (S. aureus GC 6335; GC6335, read-out: MINIMAL INHIBITORY CONCENTRATION MIC, Water): 2 µg/mL (≈ 2.59 µM)
MIC (E. coli GC 2271; GC2271, read-out: MINIMAL INHIBITORY CONCENTRATION MIC, Human Serum): 8 µg/mL (≈ 10.4 µM)
MIC (E. coli GC 2271; GC2271, read-out: MINIMAL INHIBITORY CONCENTRATION MIC, Mouse Serum): 0.25 µg/mL (≈ 0.324 µM)
MIC (E. coli GC 2271; GC2271, read-out: MINIMAL INHIBITORY CONCENTRATION MIC, Water): 32 µg/mL (≈ 41.5 µM)
MIC (E. faecalis GC 2242; GC2242, read-out: MINIMAL INHIBITORY CONCENTRATION MIC, Human Serum): 1 µg/mL (≈ 1.3 µM)
MIC (E. faecalis GC 2242; GC2242, read-out: MINIMAL INHIBITORY CONCENTRATION MIC, Mouse Serum): 0.5 µg/mL (≈ 0.648 µM)
MIC (E. faecalis GC 2242; GC2242, read-out: MINIMAL INHIBITORY CONCENTRATION MIC, Water): 1 µg/mL (≈ 1.3 µM)
MIC (E. faecalis GC 2267; GC2267, read-out: MINIMAL INHIBITORY CONCENTRATION MIC, Human Serum): 1 µg/mL (≈ 1.3 µM)
MIC (E. faecalis GC 2267; GC2267, read-out: MINIMAL INHIBITORY CONCENTRATION MIC, Mouse Serum): 0.5 µg/mL (≈ 0.648 µM)
MIC (E. faecalis GC 2267; GC2267, read-out: MINIMAL INHIBITORY CONCENTRATION MIC, Water): 2 µg/mL (≈ 2.59 µM)
MIC (S. aureus GC 2216; GC2216, read-out: MINIMAL INHIBITORY CONCENTRATION MIC, Human Serum): 0.25 µg/mL (≈ 0.324 µM)
MIC (S. aureus GC 2216; GC2216, read-out: MINIMAL INHIBITORY CONCENTRATION MIC, Mouse Serum): 0.25 µg/mL (≈ 0.324 µM)
MIC (S. aureus GC 2216; GC2216, read-out: MINIMAL INHIBITORY CONCENTRATION MIC, Water): 0.5 µg/mL (≈ 0.648 µM)
MIC (E. faecium GC 4556; GC4556, read-out: MINIMAL INHIBITORY CONCENTRATION MIC, Human Serum): 1 µg/mL (≈ 1.3 µM)
MIC (E. faecium GC 4556; GC4556, read-out: MINIMAL INHIBITORY CONCENTRATION MIC, Mouse Serum): 0.5 µg/mL (≈ 0.648 µM)
MIC (E. faecium GC 4556; GC4556, read-out: MINIMAL INHIBITORY CONCENTRATION MIC, Water): 1 µg/mL (≈ 1.3 µM)
MIC (S. typhimurium GC 2172; [1]): > 64 µg/mL
MIC (S. typhimurium GC 2172; [2]): 4 µg/mL (≈ 5.18 µM)
MIC (S. typhimurium GC 2172; [3]): > 64 µg/mL
MIC (E. coli GC 2270; GC2270, read-out: MINIMAL INHIBITORY CONCENTRATION MIC, Human Serum): 16 µg/mL (≈ 20.7 µM)
MIC (E. coli GC 2270; GC2270, read-out: MINIMAL INHIBITORY CONCENTRATION MIC, Mouse Serum): 0.5 µg/mL (≈ 0.648 µM)
MIC (E. coli GC 2270; GC2270, read-out: MINIMAL INHIBITORY CONCENTRATION MIC, Water): 64 µg/mL (≈ 82.9 µM)
MIC (S. aureus GC 6467; GC6467, read-out: MINIMAL INHIBITORY CONCENTRATION MIC, Human Serum): 0.5 µg/mL (≈ 0.648 µM)
MIC (S. aureus GC 6467; GC6467, read-out: MINIMAL INHIBITORY CONCENTRATION MIC, Mouse Serum): 1 µg/mL (≈ 1.3 µM)
MIC (S. aureus GC 6467; GC6467, read-out: MINIMAL INHIBITORY CONCENTRATION MIC, Water): 2 µg/mL (≈ 2.59 µM)
MIC (E. coli GC 4559; GC4559, read-out: MINIMAL INHIBITORY CONCENTRATION MIC, Human Serum): 32 µg/mL (≈ 41.5 µM)
MIC (E. coli GC 4559; GC4559, read-out: MINIMAL INHIBITORY CONCENTRATION MIC, Mouse Serum): 0.25 µg/mL (≈ 0.324 µM)
MIC (E. coli GC 4559; GC4559, read-out: MINIMAL INHIBITORY CONCENTRATION MIC, Water): > 64 µg/mL
MIC (P. aeruginosa GC 2214; GC2214, read-out: MINIMAL INHIBITORY CONCENTRATION MIC, Human Serum): > 64 µg/mL
MIC (P. aeruginosa GC 2214; GC2214, read-out: MINIMAL INHIBITORY CONCENTRATION MIC, Mouse Serum): 16 µg/mL (≈ 20.7 µM)
MIC (P. aeruginosa GC 2214; GC2214, read-out: MINIMAL INHIBITORY CONCENTRATION MIC, Water): > 64 µg/mL
MIC (E. coli GC 2203; GC2203, read-out: MINIMAL INHIBITORY CONCENTRATION MIC, Human Serum): 16 µg/mL (≈ 20.7 µM)
MIC (E. coli GC 2203; GC2203, read-out: MINIMAL INHIBITORY CONCENTRATION MIC, Mouse Serum): 0.25 µg/mL (≈ 0.324 µM)
MIC (E. coli GC 2203; GC2203, read-out: MINIMAL INHIBITORY CONCENTRATION MIC, Water): 64 µg/mL (≈ 82.9 µM)
MIC (E. coli GC 2231; GC2231, read-out: MINIMAL INHIBITORY CONCENTRATION MIC, Human Serum): 16 µg/mL (≈ 20.7 µM)
MIC (E. coli GC 2231; GC2231, read-out: MINIMAL INHIBITORY CONCENTRATION MIC, Mouse Serum): 0.5 µg/mL (≈ 0.648 µM)
MIC (E. coli GC 2231; GC2231, read-out: MINIMAL INHIBITORY CONCENTRATION MIC, Water): 64 µg/mL (≈ 82.9 µM)
MIC (E. coli GC 2232; GC2232, read-out: MINIMAL INHIBITORY CONCENTRATION MIC, Human Serum): 16 µg/mL (≈ 20.7 µM)
MIC (E. coli GC 2232; GC2232, read-out: MINIMAL INHIBITORY CONCENTRATION MIC, Mouse Serum): 0.25 µg/mL (≈ 0.324 µM)
MIC (E. coli GC 2232; GC2232, read-out: MINIMAL INHIBITORY CONCENTRATION MIC, Water): 64 µg/mL (≈ 82.9 µM)
MIC (S. agalactiae GC 4564; GC4564, read-out: MINIMAL INHIBITORY CONCENTRATION MIC, Human Serum): 0.12 µg/mL (≈ 0.155 µM)
MIC (S. agalactiae GC 4564; GC4564, read-out: MINIMAL INHIBITORY CONCENTRATION MIC, Mouse Serum): 0.12 µg/mL (≈ 0.155 µM)
MIC (S. agalactiae GC 4564; GC4564, read-out: MINIMAL INHIBITORY CONCENTRATION MIC, Water): 0.12 µg/mL (≈ 0.155 µM)
SMILES: CCCCCCC(=O)OCOC(=O)N(CC(=O)Nc1cc(N(C)C)c2c(c1O)C(=O)C1=C(O)[C@]3(O)C(=O)C(C(N)=O)=C(O)[C@@H](N(C)C)[C@@H]3C[C@@H]1C2)C(C)(C)C [Example 48, ({[(2-{[(5aR,6aS,7S,10aS)-9-(aminocarbonyl)-4,7-bis(dimethylamino)-1,8,10a,11-tetrahydroxy-10,12-dioxo-5,5a,6,6a,7,10,10a,12-octahydrotetracen-2-yl]amino}-2-oxoethyl)(tert-butyl)amino]carbonyl}oxy)methyl heptanoate]
ED50 (Staph. aureus Smith; Staphylococcus aureus, in Mus musculus, iv, read-out: ED50 SIV (Staph aureus Smith)): 1.1 mg/kg
ED50 (Staph. aureus Smith; Staphylococcus aureus, in Mus musculus, po, read-out: ED50 SOD (Staph aureus Smith)): 10.1 mg/kg
ED50 (Staph. aureus Smith; Staphylococcus aureus, in Mus musculus, po, read-out: ED50 Staph Smith SOD): 10.1 mg/kg
ED50 (Staph. aureus Smith; iv, read-out: ED50 Staph Smith SIV): 1.1 mg/kg
